Experimental data from article PMC2778829, “Functional Characterization of the Canine Heme-Regulated eIF2α Kinase: Regulation of Protein Synthesis” (Advances in Hematology, 2009).

Experiments:
Format in all cases: biochemical
[1] = target: T1, mouse heme-regulated inhibitor (HRI), heme-regulated eIF2α kinase (Mus musculus, UniProt Q9Z2R9); experiment: in-vitro kinase assay (AlphaScreen) with purified HRI
T1 construct: gene Eif2ak1; expressed in Sf9 cells, purified by Ni-NTA

[2] = target: T2, human heme-regulated inhibitor (HRI), heme-regulated eIF2α kinase (Homo sapiens, UniProt Q9BQI3); experiment: as above
T2 construct: gene EIF2AK1; expressed in Sf9 cells, purified by Ni-NTA

[3] = target: T3, canine heme-regulated inhibitor (HRI), heme-regulated eIF2α kinase (Canis lupus, UniProt C4PB17); experiment: AlphaScreen kinase assay with purified HRI, biotinylated Poly-GT substrate, […] ATP
T3 construct: full-length HRI, His6-tagged, expressed in Sf9 cells

Measured: IC50

T3 sequence (C4PB17 1-630): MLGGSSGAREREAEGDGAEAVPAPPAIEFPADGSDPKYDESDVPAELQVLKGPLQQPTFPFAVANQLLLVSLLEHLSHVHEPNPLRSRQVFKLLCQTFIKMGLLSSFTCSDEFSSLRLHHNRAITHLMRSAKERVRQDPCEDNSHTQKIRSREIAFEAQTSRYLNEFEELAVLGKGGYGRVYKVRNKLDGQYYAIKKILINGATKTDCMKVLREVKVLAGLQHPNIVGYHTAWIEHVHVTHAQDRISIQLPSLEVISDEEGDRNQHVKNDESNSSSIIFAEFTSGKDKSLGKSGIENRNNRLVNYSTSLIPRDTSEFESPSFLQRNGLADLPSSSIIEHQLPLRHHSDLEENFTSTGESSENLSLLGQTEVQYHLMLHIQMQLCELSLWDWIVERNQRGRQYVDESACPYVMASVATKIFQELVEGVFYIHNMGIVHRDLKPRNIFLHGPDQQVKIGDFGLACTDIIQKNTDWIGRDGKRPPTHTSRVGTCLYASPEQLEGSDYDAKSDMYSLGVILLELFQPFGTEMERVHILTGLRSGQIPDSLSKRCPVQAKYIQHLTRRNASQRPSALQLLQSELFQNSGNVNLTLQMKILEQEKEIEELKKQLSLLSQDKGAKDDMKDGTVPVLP
T1 sequence (Q9Z2R9 whole entry): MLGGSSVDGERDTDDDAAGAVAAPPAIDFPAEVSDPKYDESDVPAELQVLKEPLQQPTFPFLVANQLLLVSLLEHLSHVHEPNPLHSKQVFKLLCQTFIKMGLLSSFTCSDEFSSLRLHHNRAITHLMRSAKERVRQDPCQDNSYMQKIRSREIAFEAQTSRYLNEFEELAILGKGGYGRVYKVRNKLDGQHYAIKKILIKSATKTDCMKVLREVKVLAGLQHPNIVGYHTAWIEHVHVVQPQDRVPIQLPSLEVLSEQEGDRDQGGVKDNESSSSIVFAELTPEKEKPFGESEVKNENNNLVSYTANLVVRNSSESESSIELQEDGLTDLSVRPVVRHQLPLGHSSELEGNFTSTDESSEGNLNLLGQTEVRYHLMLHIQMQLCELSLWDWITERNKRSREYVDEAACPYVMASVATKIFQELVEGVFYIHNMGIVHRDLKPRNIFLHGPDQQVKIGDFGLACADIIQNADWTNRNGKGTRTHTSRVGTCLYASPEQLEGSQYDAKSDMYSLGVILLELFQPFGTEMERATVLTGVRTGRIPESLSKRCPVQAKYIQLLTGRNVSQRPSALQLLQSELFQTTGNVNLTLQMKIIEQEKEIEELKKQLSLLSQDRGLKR
T2 sequence (Q9BQI3 whole entry): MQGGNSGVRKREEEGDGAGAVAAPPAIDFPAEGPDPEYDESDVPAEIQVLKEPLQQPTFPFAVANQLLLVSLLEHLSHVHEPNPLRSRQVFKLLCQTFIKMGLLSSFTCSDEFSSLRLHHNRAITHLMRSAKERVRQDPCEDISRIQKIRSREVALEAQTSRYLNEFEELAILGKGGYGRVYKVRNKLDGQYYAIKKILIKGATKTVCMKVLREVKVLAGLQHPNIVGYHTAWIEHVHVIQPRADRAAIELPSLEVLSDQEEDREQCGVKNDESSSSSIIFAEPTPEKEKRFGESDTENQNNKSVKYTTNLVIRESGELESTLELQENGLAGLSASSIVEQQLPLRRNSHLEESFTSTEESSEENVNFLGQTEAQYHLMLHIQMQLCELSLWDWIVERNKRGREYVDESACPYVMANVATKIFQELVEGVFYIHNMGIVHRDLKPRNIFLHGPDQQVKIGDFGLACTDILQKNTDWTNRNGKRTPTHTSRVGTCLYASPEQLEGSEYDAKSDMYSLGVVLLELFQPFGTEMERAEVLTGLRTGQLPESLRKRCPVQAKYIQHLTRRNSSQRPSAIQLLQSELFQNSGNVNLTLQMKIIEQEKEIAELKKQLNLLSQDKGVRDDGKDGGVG

O=c1c(O)c(-c2ccc(O)c(O)c2)oc2cc(O)cc(O)c12 [quercetin, 3,3′,4′,5,7-pentahydroxyflavone]
~1000 nM: all assays above
